{
  "source": "paper PMC12311259",
  "about": "“Antifibrotic effects of specific targeting of the 5‐hydroxytryptamine 2B receptor (5‐HT2BR) in murine models and ex vivo models of scleroderma skin” (Arthritis & Rheumatology (Hoboken, N.j.), 2025)",
  "key": {"[1]": {"test": "Pharmacokinetic profile (no method given)"}, "[2]": {"molecular_target": "T1, Serotonin (5-Hydroxytryptamine) 5-HT5A (hu) (Homo sapiens, UniProt P47898)", "T1 construct": "Eurofins Panlabs 272100", "T1 sequence (P47898 whole entry)": "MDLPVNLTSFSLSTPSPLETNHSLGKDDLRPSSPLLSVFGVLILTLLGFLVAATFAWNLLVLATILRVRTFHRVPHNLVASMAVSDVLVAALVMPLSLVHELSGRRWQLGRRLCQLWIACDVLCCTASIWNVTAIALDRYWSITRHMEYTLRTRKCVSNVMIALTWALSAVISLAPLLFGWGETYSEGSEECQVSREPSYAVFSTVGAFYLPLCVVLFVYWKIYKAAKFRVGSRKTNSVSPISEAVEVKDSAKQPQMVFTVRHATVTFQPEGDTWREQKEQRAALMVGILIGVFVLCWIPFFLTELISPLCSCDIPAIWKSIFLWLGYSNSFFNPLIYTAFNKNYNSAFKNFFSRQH", "test": "Receptor binding, Eurofins Panlabs 272100", "text": "(§1) Effects were considered significant if AM1476's mean value was three or more SDs above the vehicle control mean in the agonist assay or three or more SDs below the positive control agonist (5‐nM α‐methylserotonin) mean in the antagonist assay. AM1476 was screened for selectivity against approximately 200 targets using a Eurofins Panlabs Spectrum screen panel including enzymatic and receptor binding assays."}, "human 5-HT2BR": {"molecular_target": "T2, human 5-HT2BR (Homo sapiens, UniProt P41595)", "T2 construct": "355260 (IP1); host or cells: CHO-K1", "T2 sequence (P41595 whole entry)": "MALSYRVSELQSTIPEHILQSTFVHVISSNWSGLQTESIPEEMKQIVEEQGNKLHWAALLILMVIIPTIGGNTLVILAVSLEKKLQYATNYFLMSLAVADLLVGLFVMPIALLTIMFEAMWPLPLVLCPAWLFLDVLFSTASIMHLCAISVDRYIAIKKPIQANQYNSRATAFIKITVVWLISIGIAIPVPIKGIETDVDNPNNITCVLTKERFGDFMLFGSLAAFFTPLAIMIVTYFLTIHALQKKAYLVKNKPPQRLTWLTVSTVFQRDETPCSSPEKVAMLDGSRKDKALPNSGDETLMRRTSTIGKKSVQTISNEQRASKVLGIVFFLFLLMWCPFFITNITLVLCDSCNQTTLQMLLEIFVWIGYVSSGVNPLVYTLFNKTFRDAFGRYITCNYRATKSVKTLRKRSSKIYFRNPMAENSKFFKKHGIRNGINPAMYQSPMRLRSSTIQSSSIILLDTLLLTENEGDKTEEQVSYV", "test": "Functionality assay, HTRF quantification of IP1 accumulation in CHO-K1 cells", "type": "cell-based"}, "Tsk-1 mice": {"test_system": "Tsk-1 mice", "test": "Tsk-1 mouse model of skin fibrosis", "type": "in vivo", "procedure": "AM1476 was dissolved in sterile distilled water for the ex vivo and in vivo experiments. A concentration of 30 μM was applied for the ex vivo experiment. For the in vivo experiments, 1, 3, or 10 mg/kg was administered orally once or twice daily.\nIn the murine Tsk‐1 model of SSc, a dominant mutation in the fibrillin 1 gene leads to an SSc‐like disease, with minor inflammatory infiltrates, autoantibody production, and fibrosis of the skin. This model reflects the later stages of SSc characterized by noninflammatory self‐sustaining fibrosis. Eight to 12 mice per group were analyzed. Treatment was initiated at an age of five weeks, and the outcome was analyzed at an age of 10 weeks.[11]\n(§2) Skin samples were fixed in 4% formalin for six hours and embedded in paraffin. Five‐micrometer sections were cut and stained with hematoxylin and eosin (H&E). The dermal thickness was quantified on H&E‐stained sections using images captured with a light microscope (Nikon eclipse 80i) at 100‐fold magnification by manually measuring the distance between the epidermal‐dermal junction and the dermal‐subcutaneous fat junction at four sites per mouse.[15], [16] For lung samples, the whole left lung was fixed in 4% formalin for six hours and embedded in paraffin. Five‐micrometer sections were cut and stained with trichrome and sirius red. Histologic readouts were evaluation of the fibrotic area as the percentage of the total lung area in sirius red–stained sections (two sections per mouse) and quantification of pulmonary changes using the Ashcroft score (four sections per mouse).[17], [18]\n(§3) The amount of collagen protein in skin and lung samples was determined by hydroxyproline assay.[19], [20] After digestion in 6 M HCl for three hours at 120°C, the pH of the samples was adjusted to a pH range of 6–7 with 6 M NaOH. Afterward, 0.06 M chloramine T was added to each sample and incubated for 20 minutes at room temperature. Next, 3.15 M perchloric acid and 20% p‐dimethylaminobenzaldehyde were added, and samples were incubated for an additional 20 minutes at 60°C. The absorbance was determined at 557 nm with a Spectra MAX 190 microplate spectrophotometer. Absolute values were determined using a standard curved generated with type I collagen (Sigma‐Aldrich).\nMyofibroblasts are characterized by the expression of α‐smooth muscle actin (α‐SMA). Fibroblasts positive for α‐SMA were detected by immunohistochemistry staining with monoclonal anti–α‐SMA antibodies (clone 1A4, Sigma‐Aldrich). The expression was visualized with horseradish peroxidase–labeled secondary antibodies and 3,3‐diaminobenzidine tetra hydrochloride (Sigma‐Aldrich). Monoclonal mouse IgG antibodies (Calbiochem) were used as controls. Images of sections stained for α‐SMA were captured on a light microscope (Nikon eclipse 80i). The myofibroblast number was manually evaluated at four different areas at 200‐fold magnification. Myofibroblasts were defined as α‐SMA positive, single, and spindle‐shaped cells in the dermis.[5], [21]"}, "Mouse 5-HT2BR": {"molecular_target": "T3, Mouse 5-HT2BR (Mus musculus, UniProt Q02152)", "T3 construct": "host or cells: CHO-K1", "T3 sequence (Q02152 whole entry)": "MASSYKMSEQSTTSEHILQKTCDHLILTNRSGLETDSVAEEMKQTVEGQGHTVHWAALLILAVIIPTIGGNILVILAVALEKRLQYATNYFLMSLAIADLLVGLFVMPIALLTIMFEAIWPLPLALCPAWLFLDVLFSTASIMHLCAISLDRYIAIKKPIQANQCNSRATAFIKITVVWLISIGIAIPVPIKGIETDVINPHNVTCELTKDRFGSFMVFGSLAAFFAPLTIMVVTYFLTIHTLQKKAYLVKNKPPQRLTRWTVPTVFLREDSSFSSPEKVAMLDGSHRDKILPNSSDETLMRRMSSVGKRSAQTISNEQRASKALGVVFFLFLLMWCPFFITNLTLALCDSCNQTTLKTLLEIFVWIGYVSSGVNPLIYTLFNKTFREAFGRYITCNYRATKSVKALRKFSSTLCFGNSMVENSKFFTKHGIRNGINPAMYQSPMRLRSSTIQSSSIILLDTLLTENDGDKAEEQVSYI", "test": "Calcium influx functionality assay (FLIPR) in CHO-K1 cells expressing mouse 5-HT2BR", "type": "cell-based", "details": "agonist 5 nM α-methylserotonin", "procedure": "The binding profile of AM1476 was evaluated for binding to human 5‐HT2AR, 5‐HT2BR, and 5‐HT2CR in radioligand binding assays using Chinese hamster ovary (CHO‐K1) cells overexpressing human receptors (in vitro assays 271650, 271700, and 271800; Eurofins Panlabs Discovery). AM1476 was evaluated at 0.1, 1, 10, 100, 1,000, and 10,000 nM (5‐HT2BR) or at 1, 10, 100, 1,000, and 10,000 nM (5‐HT2AR and 5‐HT2CR). Human 5‐HT2AR and 5‐HT2BR functionality was measured with homogeneous time‐resolved fluorescence quantification of IP1 accumulation in CHO‐K1 cells (in vitro assays 355250 and 355260). Compounds creating a ≥50% inhibition of 5‐HT (5 nM) induced fluorescence response specified receptor antagonist activity. 5‐HT2CR functionality was assessed with [35S] GTPγS for quantification of bound GTPγS. Compounds creating a ≥50% inhibition of 5‐HT (100 nM) induced [35S] GTPγS binding response specified receptor antagonist activity (in vitro assay 355200). AM1476 was evaluated at 0.1, 0.3, 1, 3, 10, 30, and 300 nM (5‐HT2BR) or 1, 10, 100, 1,000, and 10,000 nM (5‐HT2AR and 5‐HT2CR). […] Mouse 5‐HT2BR functionality was measured in a calcium influx assay (Charles River) in CHO‐KI cells expressing the mouse 5‐HT2BR using a calcium sensitive dye and a fluorescence imaging plate reader (FLIPRTETRA) instrument. AM1476 was evaluated at 0.3, 1, 3, 10, 30, 100, 300, and 1,000 nM. […]"}, "Adrenergic α1A (hu)": {"molecular_target": "T4, Adrenergic α1A (hu) (Homo sapiens, UniProt P35348)", "T4 construct": "Eurofins Panlabs 302040", "T4 sequence (P35348 whole entry)": "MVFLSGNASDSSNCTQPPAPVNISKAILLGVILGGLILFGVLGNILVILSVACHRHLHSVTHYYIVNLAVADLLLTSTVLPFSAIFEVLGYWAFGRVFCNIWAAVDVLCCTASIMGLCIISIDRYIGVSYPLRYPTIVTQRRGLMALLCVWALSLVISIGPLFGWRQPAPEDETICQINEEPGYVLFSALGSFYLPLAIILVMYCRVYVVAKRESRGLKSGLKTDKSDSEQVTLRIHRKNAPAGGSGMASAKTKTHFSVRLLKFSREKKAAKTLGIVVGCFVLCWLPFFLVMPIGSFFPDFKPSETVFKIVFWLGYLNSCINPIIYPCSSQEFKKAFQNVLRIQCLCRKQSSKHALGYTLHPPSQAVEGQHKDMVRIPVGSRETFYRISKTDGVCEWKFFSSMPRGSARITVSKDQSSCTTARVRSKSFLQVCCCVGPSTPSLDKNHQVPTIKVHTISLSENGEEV", "test": "Functionality assay, IP1, Eurofins Panlabs 302040", "type": "cell-based", "text": "as §1"}, "[3]": {"test_system": "Bleomycin-induced pulmonary fibrosis", "test": "Bleomycin-induced pulmonary fibrosis in mice", "type": "in vivo, mouse", "procedure": "Pulmonary fibrosis was induced by a single intratracheal instillation of bleomycin (25 μg in 50 μL of 0.9% NaCl).[12] Treatment was initiated at two weeks after the first injection of bleomycin. AM1476 was administered orally at 1, 3, or 10 mg/kg once daily. Solvent (double‐distilled water) was used as a control, and nintedanib at 30 mg/kg orally every day (qd) was included as a comparator. The outcome was analyzed at two and four weeks after the first injection of bleomycin. Mice injected with 0.9% NaCl, the vehicle of bleomycin, served as nonfibrotic controls. Eight mice per group were analyzed.\nas §2, §3"}, "Adrenergic β2 (hu)": {"molecular_target": "T5, Adrenergic β2 (hu) (Homo sapiens, UniProt P07550)", "T5 construct": "Eurofins Panlabs 302150", "T5 sequence (P07550 whole entry)": "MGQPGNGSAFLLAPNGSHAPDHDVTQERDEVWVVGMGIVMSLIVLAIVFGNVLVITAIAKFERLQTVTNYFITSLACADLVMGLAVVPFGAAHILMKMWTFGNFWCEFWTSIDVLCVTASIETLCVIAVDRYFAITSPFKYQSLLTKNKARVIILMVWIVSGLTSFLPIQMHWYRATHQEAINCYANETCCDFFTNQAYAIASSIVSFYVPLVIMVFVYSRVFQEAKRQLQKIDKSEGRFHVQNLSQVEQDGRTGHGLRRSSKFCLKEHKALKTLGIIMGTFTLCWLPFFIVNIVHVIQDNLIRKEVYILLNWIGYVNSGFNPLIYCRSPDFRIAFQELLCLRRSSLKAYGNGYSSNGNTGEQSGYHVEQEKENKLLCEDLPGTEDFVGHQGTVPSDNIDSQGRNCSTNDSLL", "test": "Functionality assay, Adenylyl Cyclase, Eurofins Panlabs 302150", "type": "cell-based", "text": "as §1"}, "[4]": {"details": "all three doses, vs vehicle-treated 10-week-old Tsk-1 mice"}, "[5]": {"details": "all doses (1, 3, 10 mg/kg orally once daily), vs vehicle-treated bleomycin-challenged mice"}},
  "note": "Entries after “also recorded” stand apart in the source; their conditions may differ.",
  "data": [
    {"smiles": "C[C@@H]1CN(C(=N)N)N=C1c1ccc(F)cc1O", "note": "[AM1476]", "values": [
      {"measurement": "distribution to the brain", "setting": "[1]", "value": "no preference to distribute to the brain"},
      {"measurement": "oral bioavailability", "setting": "[1]", "value": "orally bioavailable"},
      {"measurement": "% Inhibition at 1 µM, 5-HT5A (hu)", "setting": "[2]; 1 µM (value in brackets)", "value": 10, "unit": "%"},
      {"measurement": "% Inhibition at 10 µM, 5-HT5A (hu)", "setting": "[2]; 10 µM", "value": 70, "unit": "%"},
      {"measurement": "agonistic activity at 5-HT2BR", "setting": "human 5-HT2BR", "value": "devoid of agonistic activity; also recorded: no agonism"},
      {"measurement": "IC50", "setting": "human 5-HT2BR; inhibition of 5-HT (5 nM) induced IP1 response, CHO-K1, read-out: IC50, antagonistic activity, human 5-HT2B", "value": 5.8, "unit": "nM"},
      {"measurement": "hydroxyproline content vs five-week-old Tsk-1 mice (pretreatment level)", "setting": "Tsk-1 mice; 10 mg/kg qd or 10 mg/kg bid", "value": "comparable"},
      {"measurement": "hypodermal thickness vs five-week-old Tsk-1 mice (pretreatment level)", "setting": "Tsk-1 mice; 10 mg/kg qd or 10 mg/kg bid", "value": "comparable"},
      {"measurement": "hydroxyproline content", "setting": "Tsk-1 mice; [4]", "value": "reduced"},
      {"measurement": "hypodermal thickening", "setting": "Tsk-1 mice; [4]", "value": "reduced"},
      {"measurement": "myofibroblast counts", "setting": "Tsk-1 mice; [4]", "value": "reduced"},
      {"measurement": "IC50", "setting": "Mouse 5-HT2BR", "value": 11.5, "unit": "nM"},
      {"measurement": "IC50", "setting": "Adrenergic α1A (hu)", "value": 4340, "unit": "nM"},
      {"measurement": "agonistic activity, Adrenergic α1A", "setting": "Adrenergic α1A (hu); at 300 µM", "value": "No significant agonistic activity at 300 µM"},
      {"measurement": "antifibrotic effects relative to comparator, across the different readouts", "setting": "[3]; AM1476 1, 3, 10 mg/kg orally once daily", "value": "comparable to those of nintedanib"},
      {"measurement": "Ashcroft scores", "setting": "[3]; [5]", "value": "decreases"},
      {"measurement": "collagen-covered area", "setting": "[3]; [5]", "value": "decreases"},
      {"measurement": "hydroxyproline content", "setting": "[3]; [5]", "value": "decreases"},
      {"measurement": "IC50", "setting": "Adrenergic β2 (hu)", "value": 154000, "unit": "nM"},
      {"measurement": "agonistic activity, Adrenergic β2", "setting": "Adrenergic β2 (hu); at 300 µM", "value": "No significant agonistic activity at 300 µM"}
    ]}
  ]
}
